Laboratory results as given in patent publication US20230174538A1, “Tricyclic heterocycles” (Merck Patent GmbH, priority 2020, published 2023).

system: YAP-TEAD interaction; assay: SK-HEP-1 reporter assay (8xTEAD responsive elements driving NanoLuc luciferase); format: cell-based; conditions: Homo sapiens, SK-HEP1, SK-HEP-1 reporter assay
Description: To identify inhibitors of YAP-TEAD interaction, 8×TEAD responsive elements driving the NanoLuc® luciferase gene were stably integrated into SK-HEP-1 cells (ECACC #: 91091816).
For the assay, cells were treated in duplicates with the test compounds in a 10-point dose, with the top concentration starting at 30 μM (final concentration in assay). After a 24 hour incubation at 37° C., 95% rH, and 5% CO2, a luciferase substrate/lysis reagent mix (NanoGlo™, Promega) was added to the cells, allowing the quantification of cellular luciferase activity.
Cell Media: The cells were cultured in the following media: MEM, +10% FBS, +1× GlutaMAX, +1 mM Sodium-Pyruvate, +100 μM Non-essential amino acids, +0.1 mg/ml Hygromycin. The media used for the assay was: MEM (w/o Phenol Red), +10% FBS, +1× GlutaMAX, +1 mM Sodium-Pyruvate, +100 μM Non-essential amino acids, +0.5% Pen/Strep
Reagents: The reagents used are listed below:
Cell culture: The cells were examined using an inverted microscope to check for health and cell density. To dissociate adherent cells, the monolayer of cells was washed once with pre-warmed PBS. After removing the PBS, 3 ml pre-warmed Accutase® was added to a F75 flask, dispersed evenly and the flask was allowed to sit in incubator for ˜4-5 minutes.
When a single cell suspension was obtained, 7 ml of prewarmed growth media was added and resuspended with the cells. The cell suspension was transferred to a sterile 15 ml conical centrifuge tube, and spun for 5 min at 300×g, RT. The supernatant was discarded and the pellet was resuspended in 10 ml of pre-warmed growth media.
The total cell count was determined, and 20 μl of the desired cell number was added to each well of a 384 well plate using a Multidrop Combi. The plates were then incubated for 24 hours at 37° C., 95% rH, and 5% CO2.
Compound treatment: 24 hours after seeding, the cells were treated with compounds.
A 1:333 dilution of compounds, diluted in DMSO, was made to get a final concentration of 0.3% DMSO per well. To transfer the compounds to the assay plate, 120 nl was shot from Labcyte low dead volume plates to the cell plates containing 20 μl media/well with the ECHO 555 liquid handling system.
After treatment, the cells were fed with 20 μl fresh pre-warmed assay media using a Multidrop combi.
The assay plates were then incubated for another 24 h at 37° C., 95% rH, and 5% CO2.
Luciferase readout: 24 h after treatment, the plates were taken out of the incubator and were allowed to equilibrate to RT. 30 μl of NanoGlo® reagent was added to the plates in the dark. Plates were shaken for 20 min on a Teleshake (˜1500 rpm) in the dark. The luminescence was then measured using an EnVision microplate reader. The IC50 values were generated using Genedata Screener®.

| SMILES | IC50 [µM] |
| --- | --- |
| CO[C@H]1C[C@@H](CCO)N(C(=O)c2ccc3c(c2)c2cn(C)nc2n3-c2ccc(C(F)(F)F)cc2)C1 (single isomer, unassigned) [Example B4] | > 10 |
| Cn1cc2c3cc(C(=O)N4[C@H](CO)C[C@@H]5CCCC[C@@H]54)ccc3n(-c3ccc(C(F)(F)F)cc3)c2n1 (single isomer, unassigned) [Example B32] | 0.1 to 10 |
| Cc1cc(CC(C)NC(=O)c2ccc3c(c2)c2cn(C)nc2n3-c2ccc(C(F)(F)F)cc2)n[nH]1 (centres unmarked) [B101^] | > 10 |
| Cn1cc2c3cc(C(=O)NCC4(n5cncn5)CC4)ccc3n(-c3ccc(C(F)(F)F)cc3)c2n1 [B103^] | 0.1 to 10 |
| Cn1cc2c3cc(C(=O)NC4CN(c5ccncn5)C4)ccc3n(-c3ccc(C(F)(F)F)cc3)c2n1 [B104^] | > 10 |
| CCn1cc(CCNC(=O)c2ccc3c(c2)c2cn(C)nc2n3-c2ccc(C(F)(F)F)cc2)nn1 [B105^] | 0.1 to 10 |
| Cc1ccnn1CC(C)CNC(=O)c1ccc2c(c1)c1cn(C)nc1n2-c1ccc(C(F)(F)F)cc1 (centres unmarked) [B106^] | > 10 |
| Cn1cc2c3cc(C(=O)NCCn4ccc(C5CC5)n4)ccc3n(-c3ccc(C(F)(F)F)cc3)c2n1 [B107^] | 0.1 to 10 |
| Cn1cc2c3cc(C(=O)N4CCC45CCCOCC5)ccc3n(-c3ccc(C(F)(F)F)cc3)c2n1 (centres unmarked) [B108^] | > 10 |
| CC(NC(=O)c1ccc2c(c1)c1cn(C)nc1n2-c1ccc(C(F)(F)F)cc1)c1cnn(C2CC2)c1 (centres unmarked) [B109^] | > 10 |
| Cn1cc2c3cc(C(=O)NCCc4nncn4C4CC4)ccc3n(-c3ccc(C(F)(F)F)cc3)c2n1 [B110^] | > 10 |
| COCCC1CN(C(=O)c2ccc3c(c2)c2cn(C)nc2n3-c2ccc(C(F)(F)F)cc2)CCO1 (centres unmarked) [B111^] | > 10 |
| Cn1cc2c3cc(C(=O)NC4(CCF)CCOCC4)ccc3n(-c3ccc(C(F)(F)F)cc3)c2n1 [B112^] | 0.1 to 10 |
| Cn1cc2c3cc(C(=O)NCCc4cc(O)no4)ccc3n(-c3ccc(C(F)(F)F)cc3)c2n1 [B113^] | 0.1 to 10 |
| Cn1cc2c3cc(C(=O)N[C@@H]4C[C@@H]5OCCC[C@@H]54)ccc3n(-c3ccc(C(F)(F)F)cc3)c2n1 [B114^] | > 10 |
| Cn1cc2c3cc(C(=O)NC(C4CC4)C4COCCO4)ccc3n(-c3ccc(C(F)(F)F)cc3)c2n1 (centres unmarked) [B115^] | 0.1 to 10 |

| SMILES | IC50 [µM] |
| --- | --- |
| Cn1cc2c3cc(C(=O)NC[C@@H]4C[C@H]4C4CCOCC4)ccc3n(-c3ccc(C(F)(F)F)cc3)c2n1 [B116^] | > 10 |
| Cc1ncncc1[C@@H](C)NC(=O)c1ccc2c(c1)c1cn(C)nc1n2-c1ccc(C(F)(F)F)cc1 [B118^] | 0.1 to 10 |
| CCn1ncc(CNC(=O)c2ccc3c(c2)c2cn(C)nc2n3-c2ccc(C(F)(F)F)cc2)c1F [B119^] | > 10 |
| CN(C)c1noc(CCNC(=O)c2ccc3c(c2)c2cn(C)nc2n3-c2ccc(C(F)(F)F)cc2)n1 [B120^] | 0.1 to 10 |
| Cc1nc(CCCNC(=O)c2ccc3c(c2)c2cn(C)nc2n3-c2ccc(C(F)(F)F)cc2)n[nH]1 [B121^] | 0.1 to 10 |
| Cn1cc2c3cc(C(=O)NCCc4noc(C5CC5)n4)ccc3n(-c3ccc(C(F)(F)F)cc3)c2n1 [B125^] | 0.1 to 10 |
| Cn1cc2c3cc(C(=O)NC4(c5ccncc5F)CC4)ccc3n(-c3ccc(C(F)(F)F)cc3)c2n1 [B127^] | 0.1 to 10 |
| Cn1cc2c3cc(C(=O)NC[C@@H]4C[C@H]4c4ccco4)ccc3n(-c3ccc(C(F)(F)F)cc3)c2n1 [B128^] | 0.1 to 10 |
| CCn1cnnc1CNC(=O)c1ccc2c(c1)c1cn(C)nc1n2-c1ccc(C(F)(F)F)cc1 [B129^] | 0.1 to 10 |
| Cn1cc2c3cc(C(=O)N4CC(CO)(n5cccn5)C4)ccc3n(-c3ccc(C(F)(F)F)cc3)c2n1 [B130^] | 0.1 to 10 |
| CO[C@@H]1CCOC[C@H]1NC(=O)c1ccc2c(c1)c1cn(C)nc1n2-c1ccc(C(F)(F)F)cc1 [B131^] | 0.1 to 10 |
| Cc1[nH]ncc1CCCNC(=O)c1ccc2c(c1)c1cn(C)nc1n2-c1ccc(C(F)(F)F)cc1 [B132^] | 0.1 to 10 |
| Cn1cc2c3cc(C(=O)NC4(c5nnc[nH]5)CC4)ccc3n(-c3ccc(C(F)(F)F)cc3)c2n1 [B134^] | 0.1 to 10 |
| Cn1cc2c3cc(C(=O)N4CC(O)(c5ccsc5)C4)ccc3n(-c3ccc(C(F)(F)F)cc3)c2n1 [B135^] | 0.1 to 10 |
| COc1cc(CN(C)C(=O)c2ccc3c(c2)c2cn(C)nc2n3-c2ccc(C(F)(F)F)cc2)sn1 [B136^] | > 10 |

Second part, the compound after the results:

| IC50 [µM] | SMILES |
| --- | --- |
| 0.1 to 10 | Cn1cc2c3cc(C(=O)NC(CO)c4ccccn4)ccc3n(-c3ccc(C(F)(F)F)cc3)c2n1 (racemic) [Example 29, N-[2-hydroxy-1-(pyridin-2-yl)ethyl]-2-methyl-8-[4-(trifluoromethyl)phenyl]-2H,8H-pyrazolo[3,4-b]indole-5-carboxamide] |
| 0.1 to 10 | Cn1cc2c3cc(C(=O)N[C@@H]4C[C@H](O)c5ccccc54)ccc3n(-c3ccc(C(F)(F)F)cc3)c2n1 (relative stereo) [Example B1, N-[(1R,3S)-3-hydroxy-2,3-dihydro-1H-inden-1-yl]-2-methyl-8-[4-(trifluoromethyl)phenyl]-2H,8H-pyrazolo[3,4-b]indole-5-carboxamide] |
| 0.1 to 10 | Cn1cc2c3cc(C(=O)N[C@@H]4COC5(CCC5)[C@H]4O)ccc3n(-c3ccc(C(F)(F)F)cc3)c2n1 (relative stereo) [Example B23, N-[(7R,8S)-8-hydroxy-5-oxaspiro[3.4]octan-7-yl]-2-methyl-8-[4-(trifluoromethyl)phenyl]-2H,8H-pyrazolo[3,4-b]indole-5-carboxamide] |
| 0.1 to 10 | Cn1cc2c3cc(C(=O)N[C@@H]4C[C@H](O)[C@H]4n4cccn4)ccc3n(-c3ccc(C(F)(F)F)cc3)c2n1 (relative stereo) [Example B26, N-[(1R,2S,3S)-3-hydroxy-2-(1H-pyrazol-1-yl)cyclobutyl]-2-methyl-8-[4-(trifluoromethyl)phenyl]-2H,8H-pyrazolo[3,4-b]indole-5-carboxamide] |
| 0.1 to 10 | Cn1cc2c3cc(C(=O)N[C@@H]4[C@H](O)[C@@H]5CCC[C@@H]54)ccc3n(-c3ccc(C(F)(F)F)cc3)c2n1 (relative stereo) [Example B43, N-[(1R,5S,6S,7R)-7-hydroxy-bicyclo[3.2.0]heptan-6-yl]-2-methyl-8-[4-(trifluoromethyl)phenyl]-2H,8H-pyrazolo[3,4-b]indole-5-carboxamide] |
| 0.1 to 10 | Cn1cc2c3cc(C(=O)N[C@H]4c5ccccc5C[C@@H]4O)ccc3n(-c3ccc(C(F)(F)F)cc3)c2n1 (single isomer, unassigned) [Example B2] |
| 0.1 to 10 | Cn1cc2c3cc(C(=O)N4CCC[C@@H]4CCCO)ccc3n(-c3ccc(C(F)(F)F)cc3)c2n1 (single isomer, unassigned) [Example B18] |
| 0.001 to 0.01 | Cn1cc2c3cc(C(=O)NCCc4cn[nH]c4)ccc3n(-c3ccc(C(F)(F)F)cc3)c2n1 [B100^] |
| 0.01 to 0.1 | Cn1cc2c3cc(C(=O)NCc4c(C5CC5)cnn4C)ccc3n(-c3ccc(C(F)(F)F)cc3)c2n1 [B102^] |
| 0.01 to 0.1 | Cn1cc2c3cc(C(=O)NC4(c5ncon5)CCC4)ccc3n(-c3ccc(C(F)(F)F)cc3)c2n1 [B117^] |
| 0.01 to 0.1 | Cn1cc2c3cc(C(=O)N[C@@H]4CCO[C@H]4c4cc[nH]n4)ccc3n(-c3ccc(C(F)(F)F)cc3)c2n1 [B122^] |
| 0.01 to 0.1 | CCCc1nc(C)c(CNC(=O)c2ccc3c(c2)c2cn(C)nc2n3-c2ccc(C(F)(F)F)cc2)o1 [B124^] |
| 0.01 to 0.1 | Cn1cc2c3cc(C(=O)NC4COCC4C4CC4)ccc3n(-c3ccc(C(F)(F)F)cc3)c2n1 (centres unmarked) [B133^] |
